US20130184273A1, “BICYCLIC PYRIMIDINES” (Bayer Intellectual Property GmbH, priority 2010, published 2013)

What was measured:
[1] = tested on: KPL-4 breast cancer cell line; test: Tumor cell proliferation assay (CellTiter-Glo); type: cell-based; conditions: KPL4, 72 h drug exposure
Description: Compounds were tested in a cell-based assay that measures the capacity of the compounds to inhibit tumour cell proliferation following a 72 h drug exposure. Cell viability is determined using CellTiter-Glow® (CTG, Promega, cat #G7571/2/3). The CellTiter-Glo® Luminescent Cell Viability Assay is a homogeneous method to determine the number of viable cells in culture. Detection is based on using the luciferase reaction to measure the amount of ATP from viable cells. The amount of ATP in cells correlates with cell viability. Within minutes after a loss of membrane integrity, cells lose the ability to synthesize ATP, and endogenous ATPases destroy any remaining ATP; thus the levels of ATP fall precipitously.
Cells were plated at 3000-5000 cells/well (depending on the cell lines) in 90 μL growth medium on MTPs (Corning; #3603, black plate, clear flat bottom). For each cell line assayed, cells were plated onto a separate plate for determination of […] at t=0 hour and t=72 hour time points. Following overnight incubation at 37° C., chemiluminescence values for the t=0 samples were determined after adding 10 μl medium and 100 μl CTG solution according to manufacture protocol. Plates for the t=72 hour time points were treated with compounds diluted into growth medium at ten times final concentration added in 10 μL to the cell culture plate. Cells were then incubated for 72 hours at 37° C. Chemiluminescence values for the t=72 hour samples were determined. […] Experiments were controlled using a reference compound as standard.

[2] = target: T1, His-tagged human recombinant kinase full-length Akt1 (Homo sapiens, UniProt P31749); test: Akt1 kinase assay (TR-FRET); type: biochemical; conditions: 10 μM ATP, 60 min at 22° C., read-out: Akt1, median IC50
T1 construct: His-tagged human recombinant kinase full-length Akt1; His; purchased Invitrogen PV 3599; host or cells: insect cells
T1 sequence (P31749 whole entry): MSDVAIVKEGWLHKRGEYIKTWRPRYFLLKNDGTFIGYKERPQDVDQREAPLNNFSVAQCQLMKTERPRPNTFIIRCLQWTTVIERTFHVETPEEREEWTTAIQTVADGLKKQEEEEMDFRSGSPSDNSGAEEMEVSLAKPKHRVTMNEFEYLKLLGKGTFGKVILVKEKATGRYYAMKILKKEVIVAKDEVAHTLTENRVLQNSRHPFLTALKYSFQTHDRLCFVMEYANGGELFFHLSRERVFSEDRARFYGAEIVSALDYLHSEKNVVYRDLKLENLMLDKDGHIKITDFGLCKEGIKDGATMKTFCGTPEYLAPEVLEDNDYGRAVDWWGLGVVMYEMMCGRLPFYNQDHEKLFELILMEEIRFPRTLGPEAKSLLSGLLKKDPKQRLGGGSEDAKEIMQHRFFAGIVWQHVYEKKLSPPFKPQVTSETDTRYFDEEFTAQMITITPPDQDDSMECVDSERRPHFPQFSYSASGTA
From the text: Akt1 inhibitory activity of compounds of the present invention was quantified employing the Akt1 TR-FRET assay as described in the following paragraphs.
(§1) His-tagged human recombinant kinase full-length Akt1 expressed in insect cells was purchased form Invitrogen (part number PV 3599). As substrate for the kinase reaction the biotinylated peptide biotin-Ahx-KKLNRTLSFAEPG (C-terminus in amide form) was used which can be purchased e.g. from the company Biosynthan GmbH (Berlin-Buch, Germany).
(§2) For the assay 50 nl of a 100 fold concentrated solution of the test compound in DMSO was pipetted into a black low volume 384well microtiter plate (Greiner Bio-One, Frickenhausen, Germany), 2 μl of a solution of Akt1 in assay buffer [50 mM TRIS/HCl pH 7.5, 5 mM MgCl2, 1 mM dithiothreitol, 0.02% (v/v) Triton X-100 (Sigma)] were added and the mixture was incubated for 15 min at 22° C. to allow pre-binding of the test compounds to the enzyme before the start of the kinase reaction. Then the kinase reaction was started by the addition of 3 μl of a solution of adenosine-tri-phosphate (ATP, 16.7 μM=>final conc. in the 5 μl assay volume is 10 μM) and substrate (1.67 μM=>final conc. in the 5 μl assay volume is 1 μM) in assay buffer and the resulting mixture was incubated for a reaction time of 60 min at 22° C. The concentration of Akt1 in the assay was adjusted depending of the activity of the enzyme lot and was chosen appropriate to have the assay in the linear range, typical enzyme concentrations were in the range of about 0.05 ng/μl (final conc. in the 5 μl assay volume).
The reaction was stopped by the addition of 5 μl of a solution of HTRF detection reagents (200 nM streptavidine-XL665 [Cisbio] and 1.5 nM anti-phosho-Serine antibody [Millipore, cat. #35-001] and 0.75 nM LANCE Eu-W 1024 labeled anti-mouse IgG antibody [Perkin Elmer]) in an aqueous EDTA-solution (100 mM EDTA, 0.1% (w/v) bovine serum albumin in 50 mM HEPES/NaOH pH 7.5). The resulting mixture was incubated 1 h at 22° C. to allow the binding of the biotinylated phosphorylated peptide to the streptavidine-XL665 and the antibodies. Subsequently the amount of phosphorylated substrate was evaluated by measurement of the resonance energy transfer from the anti-mouse-IgG-Eu-Chelate to the streptavidine-XL665. Therefore, the fluorescence emissions at 620 nm and 665 nm after excitation at 350 nm was measured in a HTRF reader, e.g. a Rubystar (BMG Labtechnologies, Offenburg, Germany) or a Viewlux (Perkin-Elmer). The ratio of the emissions at 665 nm and at […] was taken as the measure for the amount of phosphorylated substrate. The data were normalised (enzyme reaction without inhibitor=0% inhibition, all other assay components but no enzyme=100% inhibition).

[3] = target: T2, His-tagged human recombinant kinase full-length Akt2 (Homo sapiens, UniProt P31751); test: Akt2 kinase assay (TR-FRET); type: biochemical; conditions: 10 μM ATP, 60 min at 22° C., read-out: Akt2, median IC50
T2 construct: His-tagged human recombinant kinase full-length Akt2; His; purchased Invitrogen PV 3975; host or cells: insect cells
T2 sequence (P31751 whole entry): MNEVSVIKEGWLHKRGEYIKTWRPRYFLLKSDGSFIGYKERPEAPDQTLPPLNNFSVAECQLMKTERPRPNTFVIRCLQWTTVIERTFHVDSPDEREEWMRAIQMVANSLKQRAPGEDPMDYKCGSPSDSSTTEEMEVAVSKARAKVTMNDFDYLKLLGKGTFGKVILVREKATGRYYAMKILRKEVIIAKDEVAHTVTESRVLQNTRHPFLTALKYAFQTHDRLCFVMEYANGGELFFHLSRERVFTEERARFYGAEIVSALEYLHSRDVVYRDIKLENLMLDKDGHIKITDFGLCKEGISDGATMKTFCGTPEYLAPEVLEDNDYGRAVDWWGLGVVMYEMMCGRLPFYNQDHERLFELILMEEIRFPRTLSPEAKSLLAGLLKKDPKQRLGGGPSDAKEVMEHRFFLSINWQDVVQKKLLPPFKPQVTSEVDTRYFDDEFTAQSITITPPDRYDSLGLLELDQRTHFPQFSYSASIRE
From the text: Akt2 inhibitory activity of compounds of the present invention was quantified employing the Akt2 TR-FRET assay as described in the following paragraphs.
as §1, with “Akt2” for “Akt1”, “cells and activated by PDK1” for “cells”, “3975).” for “3599).”
as §2, with “Akt2” for “Akt1”, “0.2” for “0.05”
The reaction was stopped by the addition of 5 μl of a solution of HTRF detection reagents (200 nM streptavidine-XL665 [Cisbio] and 1.5 nM anti-phosho-Serine antibody [Millipore, cat. #35-001] and 0.75 nM LANCE Eu-W 1024 labeled anti-mouse IgG antibody [Perkin Elmer]) in an aqueous EDTA-solution (100 mM EDTA, 0.1% (w/v) bovine serum albumin in 50 mM HEPES/NaOH pH 7.5).
The resulting mixture was incubated 1 h at 22° C. to allow the binding of the biotinylated phosphorylated peptide to the streptavidine-XL665 and the antibodies.
Subsequently the amount of phosphorylated substrate was evaluated by measurement of the resonance energy transfer from the anti-mouse-IgG-Eu-Chelate to the streptavidine-XL665. Therefore, the fluorescence emissions at 620 nm and 665 nm after excitation at 350 nm was measured in a TR-FRET reader, e.g. a Rubystar (BMG Labtechnologies, Offenburg, Germany) or a Viewlux (Perkin-Elmer). The ratio of the emissions at 665 nm and at […] was taken as the measure for the amount of phosphorylated substrate. The data were normalised (enzyme reaction without inhibitor=0% inhibition, all other assay components but no enzyme=100% inhibition).

SMILES | IC50 [1] [nM] | IC50 [2] [nM] | IC50 [3] [nM]
NC1(c2ccc(-c3nc4nc(C5CC5)nn4cc3-c3ccccc3)cc2)CCC1 [Example 1-4, 1-[4-(2-cyclopropyl-6-phenyl-[1,2,4]triazolo[1,5-a]pyrimidin-5-yl)-phenyl]-cyclobutylamine] | 1410 | 755 | 408
Cc1cn2c(NC3CC3)c(-c3ccccc3)c(-c3ccc(C4(N)CCC4)cc3)nc2n1 [Example 2-5, {7-[4-(1-Amino-cyclobutyl)-phenyl]-2-methyl-6-phenyl-imidazo[1,2-a]pyrimidin-5-yl)-cyclopropylamine] | 3620 |  | 540
CC(C)(C)Nc1c(-c2ccccc2)c(-c2ccc(C3(N)CCC3)cc2)nc2nc(-c3ccccn3)nn12 [Example 3-0, {5-[4-(1-Aminocyclobutyl)-phenyl]-6-phenyl-2-pyridine-2-yl-[1,2,4]triazolo[1,5-a]pyrimidin-7-yl}-tert.-butylamine] | 1740 | 1130 | 61
CNc1nc2nc(-c3ccc(C4(N)CCC4)cc3)c(-c3ccccc3)cn2n1 [Example 5-3, {5-[4-(1-amino-cyclobutyl)-phenyl]-6-phenyl-[1,2,4]triazolo[1,5-a]pyrimidin-2-yl}-methyl-amine] | 2170 | 527 | 381
NC1(c2ccc(-c3nc4nc(Nc5ccccc5)nn4cc3-c3ccccc3)cc2)CCC1 [Example 5-4, {5-[4-(1-Amino-cyclobutyl)-phenyl]-6-phenyl-[1,2,4]triazolo[1,5-a]pyrimidin-2-yl}-phenyl-amine] | 6190 | 283 | 197
CC(C)Nc1nc2nc(-c3ccc(C4(N)CCC4)cc3)c(-c3ccccc3)cn2n1 [Example 5-5, {5-[4-(1-amino-cyclobutyl)-phenyl]-6-phenyl-[1,2,4]triazolo[1,5-a]pyrimidin-2-yl}-isopropyl-amine] | 2200 | 1470 | 234

The remaining lines, values ahead:

IC50 [1] [nM] | IC50 [2] [nM] | IC50 [3] [nM] | SMILES
3640 | 731 | 303 | Cc1nc2nc(-c3ccc(C4(N)CCC4)cc3)c(-c3ccccc3)c(NC3CCC3)n2n1 [Example 5-8, {5-[4-(1-amino-cyclobutyl)-phenyl]-2-methyl-6-phenyl-[1,2,4]triazolo[1,5-a]pyrimidin-7-yl}-cyclobutyl-amine]
 | 1730 | 1120 | CCNc1c(-c2ccccc2)c(-c2ccc(C3(N)CCC3)cc2)nc2nc(C)nn12 [Example 5-11, {5-[4-(1-amino-cyclobutyl)-phenyl]-2-methyl-6-phenyl-[1,2,4]triazolo[1,5-a]pyrimidin-7-yl}-ethyl-amine]
 | 1850 | 904 | Cc1nc2nc(-c3ccc(C4(N)CCC4)cc3)c(-c3ccccc3)c(NC3CC3)n2n1 [Example 5-12, {5-[4-(1-amino-cyclobutyl)-phenyl]-2-methyl-6-phenyl-[1,2,4]triazolo[1,5-a]pyrimidin-7-yl}-cyclopropyl-amine]
 | 2240 | 2240 | CNc1c(-c2ccccc2)c(-c2ccc(C3(N)CCC3)cc2)nc2nc(C)nn12 [Example 5-13, {5-[4-(1-amino-cyclobutyl)-phenyl]-2-methyl-6-phenyl-[1,2,4]triazolo[1,5-a]pyrimidin-7-yl}-methyl-amine]
 | 3250 | 2320 | COCCNc1c(-c2ccccc2)c(-c2ccc(C3(N)CCC3)cc2)nc2nc(C)nn12 [Example 5-14, {5-[4-(1-amino-cyclobutyl)-phenyl]-2-methyl-6-phenyl-[1,2,4]triazolo[1,5-a]pyrimidin-7-yl}-(2-methoxy-ethyl)-amine]
 | 11600 | 936 | NC1(c2ccc(-c3nc4nc(C5CC5)nn4c(N[C@H]4CC[C@H](O)CC4)c3-c3ccccc3)cc2)CCC1 [Example 5-15, 4-{5-[4-(1-amino-cyclobutyl)-phenyl]-2-cyclopropyl-6-phenyl-[1,2,4]triazolo[1,5-a]pyrimidin-7-ylamino}-cyclohexanol]
